From patent US11434205B2, “Substituted imidazole carboxylate derivatives and the use thereof” (priority 2018, dated 2022)
Where two headings read alike, the source gives them in different places.

Assays:
[1] = system: rats; format: in vivo, rat; conditions: for recovery time of the test animals' righting reflex: rats of the MAP/HR figures, 2×ED50, tail vein, same value in min
Method in brief: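 Hemodynamic stability judged from mean arterial pressure and heart rate, recorded at 15 s intervals over 30 min pre- and post-dose. Dosing was through a tail-vein indwelling catheter in rats carrying implanted aortic/ventricular catheters and ECG wires, operated ≥1 week earlier.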

[2] = system: secretion of cortisol, H295R cell line; assay: cells; format: cell-based; conditions: for EC50: read-out: EC50 (Cortisol)
Description: (§1) The Effects of the Compounds on Adrenocortical Function In Vitro Test
(§2) Then secretion of the cortisol and corticosterone in the supernatant, was measured using HPLC-MS/MS method to determine whether the compounds of the present invention had adrenotoxic potential.

[3] = system: secretion of corticosterone, H295R cell line; assay: cells; format: cell-based; conditions: for EC50: read-out: EC50 (Corticosterone)
Description: as §1, §2

[4] = system: rats; assay: Pharmacological characteristics at equivalent doses (2×ED50) in rats; conditions: 2×ED50, tail vein; for Adverse reactions: Red urine (incidence): DMSO solution (DMSO alone 10/10); for Onset time: time of LORR
Method in brief: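 Anesthesia onset, recorded as time of LORR, was measured after a 2×ED50 tail-vein injection (0.6 mL, 0.1 mL/s). Animals were male Sprague-Dawley rats of 250-300 g, n=8.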

[5] = system: rats
Description: Pharmacological Effects of the Compounds on Continuous Infusion in Rats
Adult male Sprague-Dawley rats with body weight ranging from 250 to 300 gm were selected for continuous infusion test. […] Time to recovery of righting reflex from stopping infusion, and time to fully awake from stopping infusion were recorded.

[6] = system: rats; assay: Loss of righting reflexes (LORR) assay in rats, ED50 by up and down method; format: in vivo, rat; conditions: Rattus norvegicus, tail vein
Method in brief: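 ED50 obtained by up-and-down dosing, with righting-reflex loss over 30 s counted as general anesthesia. Compounds injected into the tail vein (0.1 mL/s) of male Sprague-Dawley rats weighing 250-300 g.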

[7] = system: rats; format: in vivo, rat; conditions: rats of the MAP/HR figures, 2×ED50, tail vein
[8] = system: rats; remark: listed apart in the source
Description: Adult male Sprague-Dawley rats (250-300 g) were selected for the experiment. […] The anesthesia effects of the compounds were assessed in rats using a LORR assay and a period >30 s was considered as an indicator of general anesthesia. Then the up and down method was used to determine 50% effective dose (ED50). The drugs were administered through the tail vein of rats in a volume of 0.6 mL and at a rate of 0.1 mL/s.

[9] = emulsion, continuous infusion at 2×MIR
[10] = H295R cell line, 0.1-10000 nM, HPLC-MS/MS, Table D3
[11] = H295R cell line, 0.1-10000 nM, HPLC-MS/MS, Table E3
[12] = continuous tail vein infusion at 2×MIR, LORR maintained 1 hour, Table C4
[13] = continuous tail vein infusion at 2×MIR, LORR maintained 1 hour, Table D4
[14] = continuous tail vein infusion at 2×MIR, LORR maintained 1 hour, Table E4

Structure (SMILES) | recovery time of the test animals' righting reflex [1] | Cortisol as an indicator to determine the presence of inhibition ([2]; H295R, Table A3) | EC50 ([2]; Homo sapiens, NCI-H295R) | Corticosterone as an indicator to determine the presence of inhibition ([3]; H295R, Table A3) | EC50 ([3]; Homo sapiens, NCI-H295R) | Righting reflex duration [4] | Adverse reactions: Red urine (incidence) [4] | Onset time [4] | Recovery time after stopping infusion ([5]; after 1 hour infusion at 2×MIR) | Adverse reactions: Tremor (incidence) ([5]; continuous infusion 2×MIR) | Onset time [5, 9] | ED50 ([6]; class symbols) | recovery time of the test animals' righting reflex [7] | Approximate therapeutic index [8] | Minimal lethal dose [8] | Cortisol as an indicator to determine the presence of inhibition ([2]; H295R, Table B3) | Corticosterone as an indicator to determine the presence of inhibition ([3]; H295R, Table B3) | also measured
C[C@H](c1ccccc1)n1cncc1C(=O)OCC1CCC1 [Compound A8] | 2.15 min | 0 | > 1000 nM | 0 | > 1000 nM | 2.25 ± 2.64 min | Red urine (8/8) | 0.34 ± 0.21 min | 9 to 14 min | Tremor (1/6) | 3 to 4 min | 0.1 to 0.5 mg/kg | 129 s | >10 | >2 mg/kg | – | – | –
COCC1(COC(=O)c2cncn2[C@H](C)c2ccccc2)CCC1 [Compound A11] | 3.75 min | 0 | > 10000 nM | 0 | > 10000 nM | 3.81 ± 1.49 min | Red urine (8/8) | 0.21 ± 0.10 min | 14 to 18 min | Tremor (5/6) | 3 to 4 min | 0.01 to 0.1 mg/kg | 225 s | >12 | >1 mg/kg | – | – | –
C[C@H](c1ccccc1)n1cncc1C(=O)OCC1CC(F)(F)C1 [Compound A12] | 4.23 min | 0 | > 1000 nM | 0 | – | 4.04 ± 1.65 min | (8/8) | 0.16 ± 0.06 min | 13 to 16 min | Tremor (4/6) | 3 to 4 min | 0.5 to 1 mg/kg | 254 s | >16 | >10 mg/kg | – | – | Adverse reactions: Restlessness (incidence) [4]: Restlessness (2/8), Red urine
CC(OC(=O)c1cncn1[C@H](C)c1ccccc1)C1CC1 (stereo partly drawn) [Compound A16] | 2.78 min | 0 | > 1000 nM | 0 | > 1000 nM | 2.63 ± 1.20 min | 8/8 | 0.16 ± 0.07 min | 12 to 14 min | Tremor (3/6) | 2 to 3 min | 0.1 to 0.5 mg/kg | 167 s | >33 | >10 mg/kg | – | – | Adverse reactions: Tremor (incidence) ([4]; animals affected/animals): 2/8
C[C@H](c1ccccc1)n1cncc1C(=O)OC1CCC1 [Compound A17] | 5.45 min | 0 | > 10000 nM | 0 | > 10000 nM | 5.78 ± 2.28 min | Red urine (8/8) | 0.13 ± 0.03 min | 19 to 25 min | Tremor (2/6) | 2 to 3 min | 0.5 to 1 mg/kg | 327 s | >11 | >6 mg/kg | – | – | Adverse reactions: Tongue stretching (incidence) [4]: Tongue stretching (2/8),
C[C@H](c1ccccc1)n1cncc1C(=O)OCCC1CCC1 [Compound A18] | 4.55 min | 0 | > 1000 nM | 0 | > 1000 nM | 4.77 ± 1.73 min | Red urine (8/8) | 0.20 ± 0.09 min | 11 to 15 min | Tremor (5/6) | 3 to 4 min | 0.1 to 0.5 mg/kg | 273 s | >22 | >5 mg/kg | – | – | –
C[C@H](c1ccccc1)n1cncc1C(=O)OCC1(C)COC1 [Compound B5] | 4.25 min | – | > 1000 nM | – | > 10000 nM | 3.98 ± 1.34 min | Red urine (8/8) | 0.11 ± 0.02 min | 12 to 14 min | Tremor (2/6) | 3 to 4 min | 0.1 to 0.5 mg/kg | 255 s | >11 | >10 mg/kg | 0 | 0 | –
CCC1(COC(=O)c2cncn2[C@H](C)c2ccccc2)COC1 [Compound B9] | 1.82 min | – | > 10000 nM | – | > 10000 nM | 1.98 ± 1.21 min | 8/8 | 0.39 ± 0.1 min | 10 to 13 min | 1/6 | 2 to 3 min | 0.5 to 1 mg/kg | 109 s | >12 | >18 mg/kg | 0 | 0 | Adverse reactions: Restlessness (incidence) [4]: 1/8; Adverse reactions: Restlessness (incidence) ([5]; continuous infusion 2×MIR): 2/6
CCOC(=O)c1cncn1[C@H](C)c1ccccc1 [Etomidate, ethyl R-(+)-1-(1-phenylethyl)-1H-imidazol-5-carboxylate, reference compound] | 7.33 min | 2 | > 1 nM | 2 | > 10 nM | – | – | – | 25 to 30 min | 6/6 | 4 to 5 min | – | 440 s | – | 12.75 mg/kg | 2 | 2 | effect on the circulatory function (MAP, HR) ([1]; rats, 2×ED50, 30 min after administration): almost no inhibitory effect on the circulatory function; Cortisol as an indicator to determine the presence of inhibition [2, 10]: 2; Cortisol as an indicator to determine the presence of inhibition [2, 11]: 2; Cortisol as an indicator to determine the presence of inhibition ([2]; H295R, Table C3): 2; EC50 [2, 10]: > 1 nM; EC50 [2, 11]: > 1 nM; Corticosterone as an indicator to determine the presence of inhibition [3, 10]: 2; Corticosterone as an indicator to determine the presence of inhibition [3, 11]: 2; Corticosterone as an indicator to determine the presence of inhibition ([3]; H295R, Table C3): 2; EC50 [3, 10]: > 10 nM; EC50 [3, 11]: > 10 nM; Adverse reactions: Facial muscle twitching (incidence) ([5]; continuous infusion 2×MIR): twitching (4/6), Tongue stretching; Adverse reactions: Tongue stretching (incidence) ([5]; continuous infusion 2×MIR): (5/6); Onset time [5, 12]: 4 to 5 min; Recovery time after stopping infusion [5, 12]: 25 to 30 min; Onset time [5, 13]: 4 to 5 min; Recovery time after stopping infusion [5, 13]: 25 to 30 min; Onset time [5, 14]: 4 to 5 min; Recovery time after stopping infusion [5, 14]: 25 to 30 min; ED50 ([6]; brackets = 95% confidence limit): 0.75 mg/kg
